Tests used:
Experiment in all cases: KINOMEscan competition binding
Conditions in all cases: compound 10.0 µM; call rule not given here
PDGFRA (human) = PDGFRA (human) (UniProt P16234)
CSNK1G1 (human) = CSNK1G1 (human) (UniProt Q9HCP0)
STK17B (human) = STK17B (human) (UniProt O94768)
RPS6KA3 KD1 (human) = RPS6KA3 KD1 (human) (UniProt P51812)
SLK (human) = SLK (human) (UniProt Q9H2G2)
PKN2 (human) = PKN2 (human) (UniProt Q16513)
FER (human) = FER (human) (UniProt P16591)
LYN (human) = LYN (human) (UniProt P07948)
BLK (human) = BLK (human) (UniProt P51451)
FYN (human) = FYN (human) (UniProt P06241)
EPHB4 (human) = EPHB4 (human) (UniProt P54760)
CDK16 (human) = CDK16 (human) (UniProt Q00536)
Sequence of CDK16 (human) (Q00536 whole entry, looked up): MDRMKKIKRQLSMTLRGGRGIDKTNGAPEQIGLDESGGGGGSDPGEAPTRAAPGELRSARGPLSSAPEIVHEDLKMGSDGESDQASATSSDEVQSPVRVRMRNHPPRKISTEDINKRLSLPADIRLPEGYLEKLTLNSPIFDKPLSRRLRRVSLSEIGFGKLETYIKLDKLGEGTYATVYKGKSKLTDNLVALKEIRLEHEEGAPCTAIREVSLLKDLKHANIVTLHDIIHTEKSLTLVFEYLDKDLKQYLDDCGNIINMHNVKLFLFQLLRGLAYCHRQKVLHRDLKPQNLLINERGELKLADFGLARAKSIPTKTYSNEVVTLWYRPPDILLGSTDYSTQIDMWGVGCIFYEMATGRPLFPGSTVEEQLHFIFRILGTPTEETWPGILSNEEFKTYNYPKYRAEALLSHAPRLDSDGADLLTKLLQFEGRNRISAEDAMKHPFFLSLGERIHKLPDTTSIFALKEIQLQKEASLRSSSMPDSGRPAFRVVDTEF

AAK1 (human) = AAK1 (human) (UniProt Q2M2I8)
FLT4 (human) = FLT4 (human) (UniProt P35916)
SIK2 (human) = SIK2 (human) (UniProt Q9H0K1)
NEK9 (human) = NEK9 (human) (UniProt Q8TD19)
AURKA (human) = AURKA (human) (UniProt O14965)
STK3 (human) = STK3 (human) (UniProt Q13188)
RPS6KA4 KD1 (human) = RPS6KA4 KD1 (human) (UniProt O75676)
MKNK2 (human) = MKNK2 (human) (UniProt Q9HBH9)
[1] = molecular target: JAK2 JH1 catalytic (human) (UniProt O60674)
NTRK3 (human) = NTRK3 (human) (UniProt Q16288)
STK33 (human) = STK33 (human) (UniProt Q9BYT3)
MAP4K4 (human) = MAP4K4 (human) (UniProt O95819)
CDK5 (human) = CDK5 (human) (UniProt Q00535)
CSNK1A1L (human) = CSNK1A1L (human) (UniProt Q8N752)
EPHA2 (human) = EPHA2 (human) (UniProt P29317)
Sequence of EPHA2 (human) (P29317 whole entry, looked up): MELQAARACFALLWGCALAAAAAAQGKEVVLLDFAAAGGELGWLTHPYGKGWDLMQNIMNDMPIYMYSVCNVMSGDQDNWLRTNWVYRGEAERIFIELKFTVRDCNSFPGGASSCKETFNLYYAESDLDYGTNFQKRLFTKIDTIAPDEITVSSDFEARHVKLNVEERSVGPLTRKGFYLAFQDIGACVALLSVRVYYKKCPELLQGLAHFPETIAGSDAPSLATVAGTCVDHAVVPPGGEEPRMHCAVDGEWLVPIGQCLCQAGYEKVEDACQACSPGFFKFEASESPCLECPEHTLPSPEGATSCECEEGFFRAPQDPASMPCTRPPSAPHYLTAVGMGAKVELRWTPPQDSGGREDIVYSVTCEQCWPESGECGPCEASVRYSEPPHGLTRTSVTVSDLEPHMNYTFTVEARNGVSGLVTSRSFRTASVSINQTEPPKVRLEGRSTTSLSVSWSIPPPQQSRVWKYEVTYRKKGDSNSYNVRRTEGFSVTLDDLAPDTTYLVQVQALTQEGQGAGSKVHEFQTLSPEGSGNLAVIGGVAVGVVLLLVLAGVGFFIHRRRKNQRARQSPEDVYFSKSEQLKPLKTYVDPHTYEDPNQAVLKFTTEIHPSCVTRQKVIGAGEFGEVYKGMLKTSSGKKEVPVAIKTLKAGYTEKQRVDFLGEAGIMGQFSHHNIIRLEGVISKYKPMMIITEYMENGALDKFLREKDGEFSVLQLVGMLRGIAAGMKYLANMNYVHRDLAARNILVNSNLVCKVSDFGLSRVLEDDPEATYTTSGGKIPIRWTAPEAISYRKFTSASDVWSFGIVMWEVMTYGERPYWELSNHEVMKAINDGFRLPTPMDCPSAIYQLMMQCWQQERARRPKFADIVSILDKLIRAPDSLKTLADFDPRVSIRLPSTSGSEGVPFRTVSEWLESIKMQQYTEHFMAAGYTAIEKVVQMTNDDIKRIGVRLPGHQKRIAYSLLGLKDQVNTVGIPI

PAK1 (human) = PAK1 (human) (UniProt Q13153)
EPHA6 (human) = EPHA6 (human) (UniProt Q9UF33)
BTK (human) = BTK (human) (UniProt Q06187)
PRKCH (human) = PRKCH (human) (UniProt P24723)
TTK (human) = TTK (human) (UniProt P33981)
Sequence of TTK (human) (P33981 whole entry, looked up): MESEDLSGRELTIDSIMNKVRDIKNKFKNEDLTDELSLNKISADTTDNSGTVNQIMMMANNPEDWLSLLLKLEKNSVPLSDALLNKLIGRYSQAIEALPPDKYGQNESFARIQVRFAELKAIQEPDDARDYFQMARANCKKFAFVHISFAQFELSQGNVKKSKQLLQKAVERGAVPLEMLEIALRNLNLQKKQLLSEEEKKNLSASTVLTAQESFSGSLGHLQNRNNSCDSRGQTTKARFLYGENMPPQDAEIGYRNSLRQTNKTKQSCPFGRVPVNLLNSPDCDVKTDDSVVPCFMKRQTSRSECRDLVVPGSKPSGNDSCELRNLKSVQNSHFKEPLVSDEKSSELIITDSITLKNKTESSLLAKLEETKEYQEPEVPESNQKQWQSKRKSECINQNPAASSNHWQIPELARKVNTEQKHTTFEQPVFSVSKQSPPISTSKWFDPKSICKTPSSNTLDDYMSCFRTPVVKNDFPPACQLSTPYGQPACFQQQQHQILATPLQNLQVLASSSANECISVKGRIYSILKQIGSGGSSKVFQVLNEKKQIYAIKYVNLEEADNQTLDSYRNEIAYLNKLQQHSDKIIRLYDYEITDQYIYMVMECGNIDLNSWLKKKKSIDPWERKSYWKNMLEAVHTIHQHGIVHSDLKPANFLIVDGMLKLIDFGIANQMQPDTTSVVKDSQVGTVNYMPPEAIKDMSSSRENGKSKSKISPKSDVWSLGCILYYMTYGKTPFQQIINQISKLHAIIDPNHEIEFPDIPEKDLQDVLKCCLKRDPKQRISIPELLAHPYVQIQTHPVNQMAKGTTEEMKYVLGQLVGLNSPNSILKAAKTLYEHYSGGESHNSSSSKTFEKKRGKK

FGFR1 (human) = FGFR1 (human) (UniProt P11362)
PLK4 (human) = PLK4 (human) (UniProt O00444)
YES1 (human) = YES1 (human) (UniProt P07947)
Sequence of YES1 (human) (P07947 whole entry, looked up): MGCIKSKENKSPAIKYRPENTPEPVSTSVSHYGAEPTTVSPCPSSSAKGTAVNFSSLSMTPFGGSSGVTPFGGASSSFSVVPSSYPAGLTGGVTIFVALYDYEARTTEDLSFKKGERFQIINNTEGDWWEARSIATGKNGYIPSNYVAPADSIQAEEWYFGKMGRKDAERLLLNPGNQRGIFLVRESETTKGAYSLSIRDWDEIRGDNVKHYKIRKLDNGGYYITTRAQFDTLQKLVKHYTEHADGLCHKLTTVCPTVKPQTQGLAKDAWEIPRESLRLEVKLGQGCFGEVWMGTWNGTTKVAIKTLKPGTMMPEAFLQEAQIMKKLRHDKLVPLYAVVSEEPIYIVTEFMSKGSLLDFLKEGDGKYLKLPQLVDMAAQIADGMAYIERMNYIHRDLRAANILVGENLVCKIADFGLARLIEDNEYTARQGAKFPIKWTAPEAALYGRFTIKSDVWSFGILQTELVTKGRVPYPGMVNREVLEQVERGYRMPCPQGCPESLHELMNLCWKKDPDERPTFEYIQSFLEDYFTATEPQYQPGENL

STK24 (human) = STK24 (human) (UniProt Q9Y6E0)
PRKCA (human) = PRKCA (human) (UniProt P17252)
CLK2 (human) = CLK2 (human) (UniProt P49760)
TGFBR1 (human) = TGFBR1 (human) (UniProt P36897)
CSK (human) = CSK (human) (UniProt P41240)
MYLK2 (human) = MYLK2 (human) (UniProt Q9H1R3)

Sequence of FER (human) (P16591 whole entry, looked up): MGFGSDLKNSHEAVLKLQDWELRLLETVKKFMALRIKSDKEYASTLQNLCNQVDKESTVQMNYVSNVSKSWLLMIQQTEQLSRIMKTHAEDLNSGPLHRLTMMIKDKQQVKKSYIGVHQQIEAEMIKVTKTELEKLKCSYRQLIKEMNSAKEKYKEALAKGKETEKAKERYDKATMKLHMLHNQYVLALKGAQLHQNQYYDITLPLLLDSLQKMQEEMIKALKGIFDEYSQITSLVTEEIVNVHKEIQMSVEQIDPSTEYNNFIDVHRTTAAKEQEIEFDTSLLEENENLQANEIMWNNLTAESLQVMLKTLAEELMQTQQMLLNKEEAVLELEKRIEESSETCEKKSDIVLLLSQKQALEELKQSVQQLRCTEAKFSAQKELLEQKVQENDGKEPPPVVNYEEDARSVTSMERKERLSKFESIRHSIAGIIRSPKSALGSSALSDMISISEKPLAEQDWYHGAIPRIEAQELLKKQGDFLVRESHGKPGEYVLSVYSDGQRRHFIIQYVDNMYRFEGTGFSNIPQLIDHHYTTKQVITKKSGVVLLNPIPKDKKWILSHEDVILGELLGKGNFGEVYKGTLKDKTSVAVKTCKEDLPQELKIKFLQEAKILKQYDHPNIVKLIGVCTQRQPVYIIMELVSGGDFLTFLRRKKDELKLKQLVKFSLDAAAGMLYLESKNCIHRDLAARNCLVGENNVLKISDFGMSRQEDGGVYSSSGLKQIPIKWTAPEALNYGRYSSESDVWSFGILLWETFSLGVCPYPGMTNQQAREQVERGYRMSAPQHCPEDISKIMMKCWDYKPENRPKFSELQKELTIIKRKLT
Sequence of SLK (human) (Q9H2G2 whole entry, looked up): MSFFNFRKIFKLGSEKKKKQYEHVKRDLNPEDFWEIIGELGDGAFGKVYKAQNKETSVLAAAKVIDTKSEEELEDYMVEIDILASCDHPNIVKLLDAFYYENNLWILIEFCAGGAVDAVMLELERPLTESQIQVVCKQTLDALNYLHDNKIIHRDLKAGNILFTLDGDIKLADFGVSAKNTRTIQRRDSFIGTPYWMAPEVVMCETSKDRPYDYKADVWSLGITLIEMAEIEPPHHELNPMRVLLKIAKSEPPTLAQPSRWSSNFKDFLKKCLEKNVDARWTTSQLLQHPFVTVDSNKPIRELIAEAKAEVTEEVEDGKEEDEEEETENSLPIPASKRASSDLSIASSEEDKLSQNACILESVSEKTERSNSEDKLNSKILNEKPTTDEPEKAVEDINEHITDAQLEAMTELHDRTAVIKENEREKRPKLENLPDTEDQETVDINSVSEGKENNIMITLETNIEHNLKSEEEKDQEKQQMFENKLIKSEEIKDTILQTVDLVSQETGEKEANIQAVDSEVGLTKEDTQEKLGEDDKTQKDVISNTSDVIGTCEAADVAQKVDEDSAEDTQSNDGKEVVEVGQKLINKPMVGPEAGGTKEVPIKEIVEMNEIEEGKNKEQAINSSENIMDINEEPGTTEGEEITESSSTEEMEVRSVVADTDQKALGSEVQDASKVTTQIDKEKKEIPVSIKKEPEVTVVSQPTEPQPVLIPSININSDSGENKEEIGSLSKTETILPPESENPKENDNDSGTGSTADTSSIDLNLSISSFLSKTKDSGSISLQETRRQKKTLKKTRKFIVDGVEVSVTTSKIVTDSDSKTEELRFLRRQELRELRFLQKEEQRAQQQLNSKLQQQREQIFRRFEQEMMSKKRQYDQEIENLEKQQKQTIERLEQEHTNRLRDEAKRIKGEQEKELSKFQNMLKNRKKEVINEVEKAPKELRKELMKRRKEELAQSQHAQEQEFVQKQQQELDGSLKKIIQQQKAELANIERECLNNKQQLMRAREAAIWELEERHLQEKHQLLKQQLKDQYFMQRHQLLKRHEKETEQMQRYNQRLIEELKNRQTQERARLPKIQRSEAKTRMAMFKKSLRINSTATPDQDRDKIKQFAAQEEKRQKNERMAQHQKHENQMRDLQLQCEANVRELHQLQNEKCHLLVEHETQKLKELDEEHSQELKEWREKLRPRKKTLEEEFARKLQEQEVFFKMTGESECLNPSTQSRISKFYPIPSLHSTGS

kinase still bound, per cent of control (PDGFRA (human)): 0.8% | kinase still bound, per cent of control (CSNK1G1 (human)): no effect (inactive) | kinase still bound, per cent of control (STK17B (human)): 0.1% | kinase still bound, per cent of control (RPS6KA3 KD1 (human)): 0% | kinase still bound, per cent of control (SLK (human)): 0% | kinase still bound, per cent of control (PKN2 (human)): 3% | kinase still bound, per cent of control (FER (human)): 0% | kinase still bound, per cent of control (LYN (human)): 0.2% | kinase still bound, per cent of control (BLK (human)): 0% | kinase still bound, per cent of control (FYN (human)): 0% | kinase still bound, per cent of control (EPHB4 (human)): 0.7% | kinase still bound, per cent of control (CDK16 (human)): 0% | kinase still bound, per cent of control (AAK1 (human)): 0.1% | kinase still bound, per cent of control (FLT4 (human)): 0.1% | kinase still bound, per cent of control (SIK2 (human)): 0.8% | kinase still bound, per cent of control (AURKA (human)): 0% | kinase still bound, per cent of control (STK3 (human)): 0% | kinase still bound, per cent of control (RPS6KA4 KD1 (human)): 0% | kinase still bound, per cent of control (MKNK2 (human)): 2.1% | kinase still bound, per cent of control [1]: 0.1% | kinase still bound, per cent of control (NTRK3 (human)): 0% | kinase still bound, per cent of control (STK33 (human)): 0% | kinase still bound, per cent of control (MAP4K4 (human)): 0.25% | kinase still bound, per cent of control (CDK5 (human)): 16.8% | kinase still bound, per cent of control (CSNK1A1L (human)): no effect (inactive) | kinase still bound, per cent of control (EPHA2 (human)): 1.5% | kinase still bound, per cent of control (PAK1 (human)): 4.9% | kinase still bound, per cent of control (EPHA6 (human)): 0% | kinase still bound, per cent of control (BTK (human)): 0% | kinase still bound, per cent of control (PRKCH (human)): 19.2% | kinase still bound, per cent of control (TTK (human)): 0% | kinase still bound, per cent of control (FGFR1 (human)): 0% | kinase still bound, per cent of control (PLK4 (human)): 0% | kinase still bound, per cent of control (YES1 (human)): 0% | kinase still bound, per cent of control (STK24 (human)): 0.1% | kinase still bound, per cent of control (PRKCA (human)): 2.5% | kinase still bound, per cent of control (CLK2 (human)): 0% | kinase still bound, per cent of control (TGFBR1 (human)): 0% | kinase still bound, per cent of control (CSK (human)): 0% | kinase still bound, per cent of control (MYLK2 (human)): 20.7%
Structure (SMILES): CCS(=O)(=O)Nc1ccc2c(c1)[C@H](/C(=N/c1ccc(CN3CCCCC3)cc1)c1ccccc1)C(=O)N2
kinase still bound, per cent of control (NEK9 (human)): no effect (inactive)
